Columns and labels:
[1] = system: hepatitis B virus (HBV) ayw strain; assay: HBV experimental assay in HepG2-2.2.15 cells (TaqMan PCR of secreted HBV DNA); assay type: cell-based; conditions: 10 micrograms per ml, six days
HCMV strain AD169 = assay: HCMV plaque formation assay in MRC-5 cells; assay type: cell-based; conditions: 10 micrograms per ml, 7-10 days
Streptococcus pneumoniae = Streptococcus pneumoniae growth assay; assay type: cell-based; conditions: 10 micrograms per ml; 5×10^5 CFU/mL
A549 cells = assay: Apoptosis prevention assay (C2 ceramide, Annexin-5); assay type: cell-based, human; conditions: 10 micrograms per ml, 30 min pretreatment
[2] = system: Ovalbumin-restimulated spleen cells of Balb/c mice; assay: Th1/Th2 cytokine profiling assay; assay type: cell-based, mouse; conditions: 10 micrograms per ml; murine spleen cells; Ovalbumin restimulation, 72 hours
[3] = system: Primary Human endothelial cells (HUVEC); assay: Endothelial cell migration assay; assay type: cell-based; conditions: 10 micrograms per ml, 22 hours
Method: Thereafter, designated concentration of testing peptides—10 micrograms per ml—was added in duplicate wells.

HUVEC = assay: Endothelial tube formation assay; assay type: cell-based, human; conditions: 10 micrograms per ml, 20 hours
From the text: Positive control was vehicle only.

Substance	inhibition of HBV replication as compared to the virus control infection [1]	inhibition of HCMV plaque formation as compared to the virus control (HCMV strain AD169)	inhibition of the growth of Streptococcus pneumoniae (Streptococcus pneumoniae)	reduction of the ceramide-induced apoptosis on human lung cells (A549 cells)	change of the production of IL-5 [2]	production of IFN-γ, suppressed by [2]	production of IL-2, induced by [2]	production of IL-4, induced/increased by [2]	production of TNF-alpha, induced by [2]	inhibition of the migration of human endothelial cells [3]	inhibition of the tube formation of human endothelial cells (HUVEC)	production of IFN-γ, induced by [2]
Pyr-His-Trp-Ser-Tyr-D-His(Bzl)-D-Leu-Arg-Pro-NHEt [Peptide 2]	61.6%	did not inhibit	100%	did not reduce	did not significantly change	30.8%	55.8%	135.7%	did not significantly change	8%	4%	–
Pyr-His-Trp-Ser-Tyr-Trp-Leu-Arg-Pro-Gly-NH2 (HWSYWLRPG; N-terminal pyroglutamate; C-terminal amide; printed: His-Trp-Ser-Tyr-Trp-Leu-Arg-Pro-Gly-) [Peptide 1, LHRH family peptide, commercially available]	23%	did not inhibit	100%	22.65%	did not significantly change	–	47.1%	70.6%	45.1%	3%	15%	40.2%

From patent US20100204138A1, “USE OF TRP6-T[…] D-LEU6-[…] […] AGENTS” (priority 2007, published 2010)
